# Test results from PubChem BioAssay (NCI).
#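 In this assay, cells in 96-well plates receive the compound at five concentrations for 48 hours. Endpoints are linearly interpolated between the surrounding concentrations. TGI denotes the concentration required for complete inhibition of growth.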
# Columns and labels:
# Assay in all cases: NCI tumour cell line growth inhibition, 48 h
# HS 578T breast = test system: HS 578T breast
# 786-0 renal = test system: 786-0 renal
# DU-145 prostate = test system: DU-145 prostate
# SF-268 CNS = test system: SF-268 CNS
# KM12 colon = test system: KM12 colon
# SK-MEL-28 melanoma = test system: SK-MEL-28 melanoma
# HCT-116 colon = test system: HCT-116 colon
# SF-539 CNS = test system: SF-539 CNS
# SK-OV-3 ovarian = test system: SK-OV-3 ovarian
# OVCAR-4 ovarian = test system: OVCAR-4 ovarian
# IGROV1 ovarian = test system: IGROV1 ovarian
# ACHN renal = test system: ACHN renal
# OVCAR-3 ovarian = test system: OVCAR-3 ovarian
# SNB-75 CNS = test system: SNB-75 CNS
# LOX IMVI melanoma = test system: LOX IMVI melanoma
# SNB-19 CNS = test system: SNB-19 CNS
# BT-549 breast = test system: BT-549 breast
# HOP-92 NSCLC = test system: HOP-92 NSCLC
# NCI/ADR-RES ovarian = test system: NCI/ADR-RES ovarian
# UACC-257 melanoma = test system: UACC-257 melanoma
SMILES,TGI (HS 578T breast),TGI (786-0 renal),TGI (DU-145 prostate),TGI (SF-268 CNS),TGI (KM12 colon),TGI (SK-MEL-28 melanoma),TGI (HCT-116 colon),TGI (SF-539 CNS),TGI (SK-OV-3 ovarian),TGI (OVCAR-4 ovarian),TGI (IGROV1 ovarian),TGI (ACHN renal),TGI (OVCAR-3 ovarian),TGI (SNB-75 CNS),TGI (LOX IMVI melanoma),TGI (SNB-19 CNS),TGI (BT-549 breast),TGI (HOP-92 NSCLC),TGI (NCI/ADR-RES ovarian),TGI (UACC-257 melanoma)
Nc1[nH]c(=O)nc2snnc12,> 100 µM,> 100 µM,> 100 µM,> 51.7 µM,> 100 µM,96.9 µM,> 100 µM,> 100 µM,> 100 µM,> 100 µM,> 100 µM,> 100 µM,> 100 µM,> 100 µM,65.2 µM,> 100 µM,> 100 µM,> 100 µM,> 100 µM,> 100 µM
Oc1ccc(/C=C/c2cccc(/C=C/c3ccc(O)c(O)c3)n2)cc1O,> 100 µM,24.7 µM,20.6 µM,23.3 µM,36.2 µM,38.3 µM,20.1 µM,9.39 µM,34 µM,> 100 µM,19.6 µM,18.7 µM,> 100 µM,16.5 µM,21.7 µM,18.8 µM,> 100 µM,25.3 µM,26.7 µM,28.5 µM
COc1c2c(nc3ccccc13)-c1cc(C(CC(=O)OC(C)(C)C)C(=O)OC(C)C)c(CO)c(=O)n1C2 (stereo not given),> 100 µM,> 100 µM,> 100 µM,> 100 µM,> 100 µM,> 100 µM,> 100 µM,98.4 µM,> 100 µM,> 100 µM,> 100 µM,> 100 µM,> 100 µM,> 100 µM,> 100 µM,> 100 µM,> 100 µM,> 100 µM,> 100 µM,> 100 µM
CC1CN=C(Nc2cccc(F)c2)S1 (stereo not given),> 100 µM,> 100 µM,> 100 µM,> 100 µM,> 100 µM,> 100 µM,> 100 µM,> 100 µM,> 100 µM,> 100 µM,> 100 µM,> 100 µM,> 100 µM,> 100 µM,> 100 µM,> 100 µM,> 100 µM,> 100 µM,> 100 µM,> 100 µM
Cc1ccc2nc3n[nH]c(N)c3nc2c1,> 100 µM,> 100 µM,> 100 µM,> 100 µM,> 100 µM,> 100 µM,> 100 µM,> 100 µM,> 100 µM,> 100 µM,> 100 µM,> 100 µM,> 100 µM,> 100 µM,> 100 µM,> 100 µM,> 100 µM,> 100 µM,> 100 µM,> 100 µM
N#CC1=C(N)N(/N=C/c2ccccc2)C(c2ccccc2)C1(C#N)C#N (stereo not given),66.7 µM,16.1 µM,30.6 µM,46 µM,> 58.2 µM,9.91 µM,8.13 µM,33.9 µM,26.3 µM,28.5 µM,29.1 µM,14.9 µM,17.4 µM,31.6 µM,14.6 µM,> 54.6 µM,29.4 µM,6.54 µM,54.2 µM,23.4 µM
NC(=O)CSc1c2cc(O)ccc2nc2ccc(O)cc12,> 10 µM,> 10 µM,> 10 µM,> 10 µM,> 10 µM,> 10 µM,> 10 µM,> 10 µM,> 10 µM,> 10 µM,> 10 µM,> 10 µM,> 10 µM,> 10 µM,> 10 µM,> 10 µM,> 10 µM,> 10 µM,> 10 µM,> 10 µM
O=C1/C(=C\c2ccc(Br)cc2)CCCc2ccccc21,49 µM,27.8 µM,49.4 µM,37.1 µM,29 µM,40.9 µM,24.8 µM,43.1 µM,> 100 µM,26.3 µM,34.4 µM,30.6 µM,65.1 µM,52.7 µM,29.9 µM,32.6 µM,55.9 µM,39.8 µM,27.2 µM,39.6 µM
Cc1nc2ccc(S(=O)(=O)NS(=O)(=O)c3ccc(-c4ccccc4)cc3)cc2c(=O)n1NS(=O)(=O)c1ccc(-c2ccccc2)cc1,> 100 µM,> 100 µM,> 100 µM,> 100 µM,> 100 µM,> 100 µM,> 100 µM,> 100 µM,> 100 µM,> 100 µM,> 100 µM,> 100 µM,> 100 µM,> 100 µM,> 100 µM,> 100 µM,> 100 µM,> 100 µM,> 100 µM,> 100 µM
CC12CCCCC1=C(F)C(F)(F)S2 (stereo not given),> 80.7 µM,45.9 µM,> 100 µM,> 100 µM,> 100 µM,78.2 µM,58.5 µM,> 100 µM,> 100 µM,> 100 µM,> 100 µM,51.6 µM,48 µM,> 100 µM,82.6 µM,> 100 µM,43 µM,> 67.9 µM,> 100 µM,51.6 µM
N#Cc1c2ccc([N+](=O)[O-])cc2c(=O)n2c1[nH]c1ccc(C(F)(F)F)cc12,> 100 µM,> 100 µM,> 100 µM,> 100 µM,> 100 µM,> 85.4 µM,> 41.6 µM,> 100 µM,> 100 µM,> 100 µM,> 100 µM,> 100 µM,83.4 µM,> 100 µM,45.6 µM,> 100 µM,> 100 µM,51.9 µM,> 100 µM,> 100 µM
